From patent publication US20070010566A1, “Thiazolidinones without basic nitrogen, their production and use as pharmaceutical agents” (priority 2005, published 2007) come the findings set out here.

pIC50: −log10 of the molar value.

In assay [1] the test system is human MaTu breast tumour cells. The assay can be described thus: Proliferation assay (crystal violet staining). It counts as cell-based. The settings on record: 96 h, incubated for 4 days with test substance, read-out: Inhibition of the Tumour Cell Proliferation (MaTu) IC50. The protocol: Cultivated human MaTu breast tumour cells were flattened out at a density of 5000 cells/measuring point in a 96-well multititer plate in 200 μl of the corresponding growth medium. After 24 hours, the cells of one plate (zero-point plate) were colored with crystal violet (see below), while the medium of the other plates was replaced by fresh culture medium (200 μl), to which the test substances were added at various concentrations (0 μm, as well as in the range of 0.01-30 μm; the final concentration of the solvent dimethyl sulfoxide was 0.5%). The cells were incubated for 4 days in the presence of test substances. The cell proliferation was determined by coloring the cells with crystal violet: the cells were fixed by adding 20 μl/measuring point of an 11% glutaric aldehyde solution for 15 minutes at room temperature. After three washing cycles of the fixed cells with water, the plates were dried at room temperature. The cells were colored by adding 100 μl/measuring point of a 0.1% crystal violet solution (pH was set at 3 by adding acetic acid). […] The extinction was determined by photometry at a wavelength of 595 nm. The change of cell growth, in percent, was calculated by standardization of the measured values to the extinction values of the zero-point plate (=0%) and the extinction of the untreated (0 μm) cells (=100%).

The target of assay [2] is T1, Recombinant human Plk-1 (6×His) (Homo sapiens, UniProt P53350).
T1 construct: 6×His; made in house; host or cells: baculovirus-infected insect cells (Hi5)
The assay can be described thus: PLK enzyme assay (33P-γ-ATP incorporation in biotinylated casein, SPA). Format: biochemical. The settings on record: recombinant human Plk-1, casein substrate, 0.5 μmol of ATP, 90 minutes at room temperature; read-out: PLK-1 IC50 [nM] Inhibition. The protocol:
Recombinant human Plk-1 (6×His) was purified from baculovirus-infected insect cells (Hi5).
10 ng of (produced in a recombinant manner and purified) PLK enzyme is incubated for 90 minutes at room temperature with biotinylated casein and 33P-γ-ATP as a substrate in a volume of 15 μl in 384-well Greiner small-volume microtiter plates (final concentrations in the buffer: 660 ng/ml of PLK; 0.7 μmol of casein, 0.5 μmol of ATP incl. 400 nCi/ml of 33P-γ-ATP; 10 mmol of MgCl2, 1 mmol of MnCl2; 0.01% NP40; 1 mmol of DTT, protease inhibitors; 0.1 mmol of Na2VO3 in 50 mmol of HEPES, pH 7.5). To complete the reaction, 5 μl of stop solution (500 μmol of ATP; 500 mmol of EDTA; 1% Triton X100; 100 mg/ml of streptavidin-coated SPA beads in PBS) is added. After the microtiter plate is sealed by film, the beads are sedimented by centrifuging (10 minutes, 1500 rpm). The incorporation of 33P-γ-ATP in casein is intended as a measurement of enzyme activity by β-counting.
Test substances are used in various concentrations (0 μmol, as well as in the range of 0.01-30 μmol). The final concentration of the solvent dimethyl sulfoxide is 1.5% in all batches.

T1 sequence (P53350 whole entry): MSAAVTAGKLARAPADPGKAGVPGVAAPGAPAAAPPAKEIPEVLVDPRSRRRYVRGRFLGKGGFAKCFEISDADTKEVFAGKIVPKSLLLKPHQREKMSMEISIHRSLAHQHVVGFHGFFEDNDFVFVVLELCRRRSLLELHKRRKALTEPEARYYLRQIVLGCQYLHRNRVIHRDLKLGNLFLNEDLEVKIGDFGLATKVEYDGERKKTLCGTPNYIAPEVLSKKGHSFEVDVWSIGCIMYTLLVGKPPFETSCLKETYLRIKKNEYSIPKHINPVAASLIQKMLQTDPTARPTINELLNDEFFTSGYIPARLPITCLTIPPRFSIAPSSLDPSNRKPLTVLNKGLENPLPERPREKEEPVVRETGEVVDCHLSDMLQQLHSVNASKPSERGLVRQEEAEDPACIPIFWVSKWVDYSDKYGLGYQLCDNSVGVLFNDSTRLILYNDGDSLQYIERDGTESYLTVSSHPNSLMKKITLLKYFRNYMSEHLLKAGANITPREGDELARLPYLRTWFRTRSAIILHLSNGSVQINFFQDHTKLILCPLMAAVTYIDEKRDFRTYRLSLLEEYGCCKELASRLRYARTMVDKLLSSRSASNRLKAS

Regarding `CCn1c(=C(C#N)C(=O)NCC(F)(F)F)sc(=Cc2nc[nH]c2C)c1=O` [Example 9], the pIC50 in assay [1] was 5.38. For the same compound, in assay [2], the concentration for half-maximal inhibition (IC50) – broadly, the concentration at which inhibition is half-maximal – stood at 230 nM.

Consider `CCn1c(=C(C#N)C(=O)NCC#N)sc(=Cc2nc[nH]c2C)c1=O` [Example 8], for which the pIC50 in assay [1] is 5.44. For the same compound, the IC50 in assay [2] came out at 250 nM.
